According to US20080269193A1, “Tetrahydroindole and Tetrahydroindazole Derivatives” (priority 2007, published 2008):

Legend:
[1] = tested on: MES-SA/Dx5 (MDR+) cell line; assay: Potency against multi-drug resistant cell line; format: cell-based; conditions: vs non-fluorinated parent analog
Protocol: (§1) A panel of cancer cell lines was obtained from the DCTP Tumor Repository, National Cancer Institute (Frederick, Md.) or ATCC (Rockville, Md.). Cell cultures were maintained in Hyclone RPMI 1640 medium (Logan, Utah) supplemented with 10% fetal bovine serum and 20 mM HEPES buffer, final pH 7.2, at 37° C. with a 5% CO2 atmosphere. Cultures were maintained at sub-confluent densities. Human umbilical vein endothelial cells (HUVEC) were purchased from Clonetics, a division of Cambrex (Walkersville, Md.). Cultures were established from cryopreserved stocks using Clonetics EGM-2 medium supplemented with 20 mM HEPES, final pH 7.2, at 37° C. with a 5% CO2 atmosphere.
(§2) For proliferation assays, cells were seeded with the appropriate medium into 96 well plates at 1,000-2,500 cells per well, depending on the cell line, and were incubated overnight. The following day, test compound, DMSO solution (negative control), or Actinomycin D (positive control) was added to the appropriate wells as 10× concentrated stocks prepared in phosphate buffered saline. […] Optical density was determined for each well at […] using a Tecan GeniosPro plate reader (RTP, NC). The percentage of cell growth was determined by comparing the cell growth in the presence of test compounds to the cells treated with DMSO vehicle (control, 100% growth) and cells treated with Actinomycin D (10 μM, 0% growth).

NCl/ADR-RES cell line = assay: Potency against adriamycin-resistant breast cancer cell line; format: cell-based, human; conditions: vs non-fluorinated parent analog
Protocol: as §1, §2

[2] = Oral bioavailability in rat; conditions: in vivo, 10 mg/kg over 24 hours, read-out: oral bioavailability (F)
PC-3 cell line = assay: PC-3 cell proliferation assay; format: cell-based; conditions: for IC50: Homo sapiens, PC-3 cells, read-out: inhibitory activity against PC-3 cell proliferation (IC50 range)
Protocol: as §1
For proliferation assays, cells were seeded with the appropriate medium into 96 well plates at 1,000-2,500 cells per well, depending on the cell line, and were incubated overnight. The following day, test compound, DMSO solution (negative control), or Actinomycin D (positive control) was added to the appropriate wells as 10× concentrated stocks prepared in phosphate buffered saline. The cell plates were then incubated for an additional 2-5 days, depending on the cell line, to allow proliferation to occur. To measure cell density, 50 μL of WST-1 solution (Roche Applied Science, Ind.) diluted 1:5 in phosphate buffered saline was added to each well, and the cells incubated for an additional 1-5 hrs., again depending on the cell line. Optical density was determined for each well at […] using a Tecan GeniosPro plate reader (RTP, NC). The percentage of cell growth was determined by comparing the cell growth in the presence of test compounds to the cells treated with DMSO vehicle (control, 100% growth) and cells treated with Actinomycin D (10 μM, 0% growth).
Immediately after the WST-1 determination, the medium was removed from the PC-3, NCI-H460 and HUVEC cell lines, and the plates stored at −80° C. Using these assay plates, relative amounts of DNA in each well were determined using the Cyquant DNA assay kit from […] (Eugene, Oreg.) following the manufacturer's directions. Results for each compound treatment were compared to DMSO vehicle control (100%) and 10 μM Actinomycin D treated cells (0%).

[3] = tested on: HSP-90 (heat shock protein 90); assay: Determination of affinity for HSP-90 (purine affinity column elution); format: binding; set-up: key: +++: very high; ++: high; +: moderate; conditions: elution from purine affinity column
Protocol: Affinity of test compounds for HSP-90 was determined as follows: Protein mixtures obtained from a variety of organ tissues (for example: spleen, liver and lung) were reversibly bound to a purine affinity column to capture purine-binding proteins, especially HSP-90. The purine affinity column was washed several times, and then eluted with 20 μM, 100 μM, and 500 μM of test compound. Compounds of Formula I elute HP-90 in a dose-dependent manner vs. a control elution using dimethylsulfoxide. The elution profile of Formula I compounds was determined by 1-dimensional SDS polyacrylamide gel electrophoresis. Gels were stained with a fluorescent stain such as sypro ruby (a highly sensitive fluorescent protein stain that can readily detect less than 1 fmol of total protein, i.e., less than 0.04 ng for a 40 kDa protein) or silver nitrate. The gels were imaged using a standard flat bed gel imager and the amount of protein estimated by densitometry. The percent of HSP-90 protein eluted from the column at each concentration was determined and IC50 values were calculated from these estimates.

Aqueous solubility = format: physicochemical; conditions: water; mono hydrochloride salt

IC50 (PC-3 cell line) [nM] | relative binding affinity to HSP-90 [3] | Compound | further results
 |  | CC1(C)CC(=O)c2c(CC3CC3)nn(-c3cc(F)c(C(N)=O)c(NC4CCOCC4)c3)c2C1 [Example 48, 4-(3-(cyclopropylmethyl)-6,6-dimethyl-4-oxo-4,5,6,7-tetrahydro-1H-indazol-1-yl)-2-fluoro-6-(tetrahydro-2H-pyran-4-ylamino)benzamide] | times more potent against MES-SA/Dx5 (MDR+) cell line [1]: 4-6 times; times more potent against NCl/ADR-RES cell line (NCl/ADR-RES cell line): 3-10 times
 |  | Cc1nn(-c2cc(F)c(C(N)=O)c(NC3CCOCC3)c2)c2c1C(=O)CC(C)(C)C2 [Example 50, 2-fluoro-6-(tetrahydro-2H-pyran-4-ylamino)-4-(3,6,6-trimethyl-4-oxo-4,5,6,7-tetrahydro-1H-indazol-1-yl)benzamide] | bioavailability [2]: > 40%
< 500 | +++ | CCc1nn(-c2ccc(C(N)=O)c(N[C@H]3CC[C@H](O)CC3)c2F)c2c1C(=O)CC(C)(C)C2 [Example 51, 4-(3-ethyl-6,6-dimethyl-4-oxo-4,5,6,7-tetrahydro-1H-indazol-1-yl)-3-fluoro-2-(trans-4-hydroxycyclohexylamino)benzamide] | 
< 500 | +++ | CCc1nn(-c2cc(F)c(C(N)=O)c(NC3CC=CC3)c2)c2c1C(=O)CC(C)(C)C2 [Example 89, 2-(cyclopent-3-enylamino)-4-(3-ethyl-6,6-dimethyl-4-oxo-4,5,6,7-tetrahydro-1H-indazol-1-yl)-6-fluorobenzamide] | 
< 500 | +++ | CCc1nn(-c2cc(F)c(C(N)=O)c(NCC(OC)OC)c2)c2c1C(=O)CC(C)(C)C2 [Example 97, 2-(2,2-dimethoxyethylamino)-4-(3-ethyl-6,6-dimethyl-4-oxo-4,5,6,7-tetrahydro-1H-indazol-1-yl)-6-fluorobenzamide] | 
 |  | C#CCN1CCC(Nc2cc(-n3nc(C(F)F)c4c3CC(C)(C)CC4=O)ccc2C(N)=O)CC1 [Example 106, 4-(3-(difluoromethyl)-6,6-dimethyl-4-oxo-4,5,6,7-tetrahydro-1H-indazol-1-yl)-2-(1-(prop-2-ynyl)piperidin-4-ylamino)benzamide] | inhibition of PC-3 cell line growth, times more (PC-3 cell line; vs compounds lacking a basic nitrogen or amino group at R6): 5-10 times
< 500 | +++ | CC1(C)CC(=O)c2c(C(F)(F)F)nn(-c3ccc(C(N)=O)c(N[C@@H]4CCCC[C@H]4N)c3)c2C1 [Example 119, 2-((1R,2R)-2-aminocyclohexylamino)-4-(6,6-dimethyl-4-oxo-3-(trifluoromethyl)-4,5,6,7-tetrahydro-1H-indazol-1-yl)benzamide] | 
 |  | C#CCN1CCC[C@H](Nc2cc(-n3nc(C(F)(F)F)c4c3CC(C)(C)CC4=O)ccc2C(N)=O)C1 [Example 121, (S)-4-(6,6-dimethyl-4-oxo-3-(trifluoromethyl)-4,5,6,7-tetrahydro-1H-indazol-1-yl)-2-(1-(prop-2-ynyl)piperidin-3-ylamino)benzamide] | solubility (Aqueous solubility): > 10000 µg/mL
500 to 5000 |  | CC1(C)CC(=O)c2c(C(F)(F)F)nn(-c3ccc(C(N)=O)c(NCCSc4ncccn4)c3)c2C1 [Example 124, 4-(6,6-dimethyl-4-oxo-3-(trifluoromethyl)-4,5,6,7-tetrahydro-1H-indazol-1-yl)-2-(2-(pyrimidin-2-ylthio)ethylamino)benzamide] | 
< 500 | +++ | CC(C)(C)CN[C@H]1CC[C@H](Nc2cc(-n3nc(C(F)(F)F)c4c3CC(C)(C)CC4=O)ccc2C(N)=O)CC1 [Example 140, 4-(6,6-dimethyl-4-oxo-3-(trifluoromethyl)-4,5,6,7-tetrahydro-1H-indazol-1-yl)-2-(trans-4-(neopentylamino)cyclohexylamino)benzamide] | 
 |  | CC1(C)CC(=O)c2c(C(F)(F)F)nn(-c3ccc(C(N)=O)c(NC4CCC4)c3)c2C1 [Example 148, 2-(cyclobutylamino)-4-(6,6-dimethyl-4-oxo-3-(trifluoromethyl)-4,5,6,7-tetrahydro-1H-indazol-1-yl)benzamide] | times more active in PC-3 cell line (PC-3 cell line; vs open chain butyl or alkyl analogs containing no oxygen): 20-100 times
 |  | CC1(C)CC(=O)c2c(C(F)(F)F)nn(-c3ccc(C(N)=O)c(NCCO)c3)c2C1 [Example 150, 4-(6,6-dimethyl-4-oxo-3-(trifluoromethyl)-4,5,6,7-tetrahydro-1H-indazol-1-yl)-2-(2-hydroxyethylamino)benzamide] | times more potent in PC-3 cell line (PC-3 cell line; vs alkyl analogs without oxygen): 10-30 times
< 500 | +++ | CC1(C)CC(=O)c2c(CC3CC3)nn(-c3ccc(C(N)=O)c(NC4CCOCC4)c3)c2C1 [Example 157, 4-(3-(cyclopropylmethyl)-6,6-dimethyl-4-oxo-4,5,6,7-tetrahydro-1H-indazol-1-yl)-2-(tetrahydro-2H-pyran-4-ylamino)benzamide] | 
500 to 5000 | +++ | C[C@H](O)CNc1cc(-n2nc(C(F)(F)F)c3c2CC(C)(C)CC3=O)ccc1C(N)=O [Example 165, (S)-4-(6,6-dimethyl-4-oxo-3-(trifluoromethyl)-4,5,6,7-tetrahydro-1H-indazol-1-yl)-2-(2-hydroxypropylamino)benzamide] | 
 |  | CC1(C)CC(=O)c2c(C(F)(F)F)nn(-c3ccc(C(N)=O)c(N[C@H]4CCCC[C@@H]4O)c3)c2C1 [Example 172, 4-(6,6-dimethyl-4-oxo-3-(trifluoromethyl)-4,5,6,7-tetrahydro-1H-indazol-1-yl)-2-((1S,2S)-2-hydroxycyclohexylamino)benzamide] | times more potent in PC-3 cell line (PC-3 cell line; vs cyclohexyl analogs not substituted with an oxygen atom): 20-50 times
< 500 | +++ | CCc1nn(-c2ccc(C(N)=O)c(N[C@H]3CCC[C@@H]3O)c2)c2c1C(=O)CC(C)(C)C2 [Example 180, 4-(3-ethyl-6,6-dimethyl-4-oxo-4,5,6,7-tetrahydro-1H-indazol-1-yl)-2-((1S,2S)-2-hydroxycyclopentylamino)benzamide] | 
 |  | Cc1nn(-c2ccc(C(N)=O)c(N[C@H]3CCOC3)c2)c2c1C(=O)CC(C)(C)C2 [Example 181, (S)-2-(tetrahydrofuran-3-ylamino)-4-(3,6,6-trimethyl-4-oxo-4,5,6,7-tetrahydro-1H-indazol-1-yl)benzamide] | times more active in PC-3 cell line (PC-3 cell line; vs non-oxygen containing cyclopentyl analogs): 20-50 times
5000 to 50000 | ++ | CCc1nn(-c2ccc(C(N)=O)c3[nH]c(C)nc23)c2c1C(=O)CC(C)(C)C2 [Example 186, 4-(3-ethyl-6,6-dimethyl-4-oxo-4,5,6,7-tetrahydro-1H-indazol-1-yl)-2-methyl-1H-benzo[d]imidazole-7-carboxamide] | 
